The text below walks through data of patent publication US20250127904A1, “SIGLEC LIGANDS, CONJUGATES, AND METHODS OF USE THEREOF” (Osprey Biopharmaceuticals, Inc., priority 2023, published 2025).

Structures are written as SMILES. Some results are limits rather than exact numbers.

In experiment [1] the target is T1, biotinylated mouse siglec-2-Fc-Avi (Mus musculus, UniProt P35329).
T1 construct: made in house
T1 sequence (P35329 22-708 limits assumed): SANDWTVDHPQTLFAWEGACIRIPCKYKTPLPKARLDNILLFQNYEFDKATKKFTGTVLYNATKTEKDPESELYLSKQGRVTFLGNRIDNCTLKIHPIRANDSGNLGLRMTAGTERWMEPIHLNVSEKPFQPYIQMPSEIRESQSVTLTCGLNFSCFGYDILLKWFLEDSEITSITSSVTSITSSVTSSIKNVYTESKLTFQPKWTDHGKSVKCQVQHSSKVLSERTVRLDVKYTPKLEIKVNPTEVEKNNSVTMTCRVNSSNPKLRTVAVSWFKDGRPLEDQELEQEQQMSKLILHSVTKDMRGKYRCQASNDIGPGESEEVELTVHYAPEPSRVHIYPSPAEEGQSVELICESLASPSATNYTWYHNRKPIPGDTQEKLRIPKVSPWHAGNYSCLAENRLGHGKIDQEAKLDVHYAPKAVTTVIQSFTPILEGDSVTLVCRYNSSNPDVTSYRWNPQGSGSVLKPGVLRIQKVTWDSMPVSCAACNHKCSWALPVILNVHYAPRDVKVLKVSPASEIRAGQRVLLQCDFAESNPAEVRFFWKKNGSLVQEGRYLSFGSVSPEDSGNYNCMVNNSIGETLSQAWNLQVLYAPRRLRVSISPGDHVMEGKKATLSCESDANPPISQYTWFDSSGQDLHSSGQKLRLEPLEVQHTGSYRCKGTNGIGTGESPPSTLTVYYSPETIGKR
Put plainly: SPR binding to mouse siglec-2/CD22. The settings on record: steady-state analysis, read-out: Mouse CD22 affinity. The method, then:
(§1) The following proteins were used for CD22 ligand binding: biotinylated human siglec-2/CD22 protein-His-Avitag (Acro Biosystems, Cat #SI2-H82E3), biotinylated mouse siglec-2-Fc-Avi (in-house production), and recombinant cynomolgus siglec-2/CD22 His-tag (R&D systems, Cat #9864-SL-050). Prior to immobilization, CD22 proteins were treated with SialoExo (Genovis, Cat #G1-SM1-020) for 4 hours at 37° C. to remove native sialic acid residues.
(§2) Capture of biotinylated CD22 constructs was performed using a Cytiva SA chip (BR100398) on a Biacore 8K instrument. Human siglec 2 was immobilized on channels 1-4 and mouse siglec 2 on channels 5-8 on the active flow cell (2) and the reference flow cell (1) was immobilized with biotinylated human FGFR2 Fc Avi, an unrelated protein, to account for any nonspecific binding. Human siglec 2 and Mouse siglec 2 were diluted in running buffer to 20 μg/mL and injected on the active flow cell (2) for 300 seconds at 5 μL/min, yielding about 3500 RU of captured constructs.
(§3) Binding experiments of siglec-ligand conjugated proteins or Siglec ligand compounds were performed on the surfaces prepared above in 10 mM HEPES, 150 mM NaCl, 0.05% Tween-20, pH 7.5, 1% DMSO as the running buffer. Compounds were serially diluted in running buffer from 50 μM to 97.6 nM and injected over both the reference and active flow cells for 90 seconds at 30 μL/min. The compounds were then allowed to dissociate from the surface for 120 seconds. No regeneration was required as the compounds completely dissociated from the surface after 30 seconds. Solvent correction was performed using 0.5, 1, 1.5, and 2% DMSO spike into running buffer without DMSO. Data was analyzed using steady-state analysis in Biacore Insight Evaluation Software, version 3.0.
(In SPR one partner is held on a chip, and binding of the other changes the refractive index at the surface.)

For experiment [2], the target named is T2, biotinylated human siglec-2/CD22 protein-His-Avitag (Homo sapiens, UniProt P20273).
T2 construct: purchased Acro Biosystems SI2-H82E3
T2 sequence (P20273 20-847): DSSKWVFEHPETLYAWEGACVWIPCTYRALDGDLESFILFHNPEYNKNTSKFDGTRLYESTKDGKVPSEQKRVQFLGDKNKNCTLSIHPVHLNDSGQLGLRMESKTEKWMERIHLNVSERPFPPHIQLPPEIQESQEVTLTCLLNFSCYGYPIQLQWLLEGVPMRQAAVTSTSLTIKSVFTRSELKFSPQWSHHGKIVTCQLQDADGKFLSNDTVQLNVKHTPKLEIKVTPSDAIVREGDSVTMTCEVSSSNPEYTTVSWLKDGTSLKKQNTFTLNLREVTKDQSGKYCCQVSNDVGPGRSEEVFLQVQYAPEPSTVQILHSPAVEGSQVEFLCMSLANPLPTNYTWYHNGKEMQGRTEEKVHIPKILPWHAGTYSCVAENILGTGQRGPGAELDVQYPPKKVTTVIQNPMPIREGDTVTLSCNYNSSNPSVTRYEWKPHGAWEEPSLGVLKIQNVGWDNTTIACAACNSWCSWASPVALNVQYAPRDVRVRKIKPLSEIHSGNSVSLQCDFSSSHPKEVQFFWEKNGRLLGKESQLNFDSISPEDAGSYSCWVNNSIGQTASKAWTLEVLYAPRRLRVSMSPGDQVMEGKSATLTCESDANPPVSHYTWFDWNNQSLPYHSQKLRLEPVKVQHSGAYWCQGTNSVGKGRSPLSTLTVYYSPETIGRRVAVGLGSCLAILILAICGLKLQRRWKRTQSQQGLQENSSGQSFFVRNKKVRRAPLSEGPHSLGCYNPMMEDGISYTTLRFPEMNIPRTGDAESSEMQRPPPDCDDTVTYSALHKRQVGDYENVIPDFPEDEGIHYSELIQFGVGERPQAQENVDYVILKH
The experiment in a line: SPR binding to human siglec-2/CD22. The settings on record: steady-state analysis, read-out: Human CD22 affinity. As to the method: as §1, §2, §3

Experiment [3] deals with recombinant cynomolgus siglec-2/CD22 His-tag (Macaca fascicularis, UniProt A0A2K5WCZ6). The experiment in a line: SPR binding to cynomolgus siglec-2/CD22. The settings on record: steady-state analysis, read-out: Cyno CD22 affinity. The method, then:
as §1
Surface preparation for cyno CD22 protein consisted of amine coupling to Cytiva CM5 chip (Cytiva, Cat #BR100530) using the Cytiva amine coupling kit Type 2 (Cytiva, Cat #BR100633). Following the standard amine coupling protocols, EDC and NHS from the kit were mixed 1:1 and injected over flow cells 1 and 2. Cyno CD22 was then immobilized by injecting 10 μg/mL in Sodium Acetate, pH 5.5 onto flow cell (2) for 420 seconds at 10 uL/min, yielding approximately 2500 RU of captured protein. Any active carboxy groups were then capped with 1M Ethanolamine, pH 8.5 for 420 s on flow cells 1 and 2.
as §3

Chain of recombinant cynomolgus siglec-2/CD22 His-tag (A0A2K5WCZ6 entry or part of it): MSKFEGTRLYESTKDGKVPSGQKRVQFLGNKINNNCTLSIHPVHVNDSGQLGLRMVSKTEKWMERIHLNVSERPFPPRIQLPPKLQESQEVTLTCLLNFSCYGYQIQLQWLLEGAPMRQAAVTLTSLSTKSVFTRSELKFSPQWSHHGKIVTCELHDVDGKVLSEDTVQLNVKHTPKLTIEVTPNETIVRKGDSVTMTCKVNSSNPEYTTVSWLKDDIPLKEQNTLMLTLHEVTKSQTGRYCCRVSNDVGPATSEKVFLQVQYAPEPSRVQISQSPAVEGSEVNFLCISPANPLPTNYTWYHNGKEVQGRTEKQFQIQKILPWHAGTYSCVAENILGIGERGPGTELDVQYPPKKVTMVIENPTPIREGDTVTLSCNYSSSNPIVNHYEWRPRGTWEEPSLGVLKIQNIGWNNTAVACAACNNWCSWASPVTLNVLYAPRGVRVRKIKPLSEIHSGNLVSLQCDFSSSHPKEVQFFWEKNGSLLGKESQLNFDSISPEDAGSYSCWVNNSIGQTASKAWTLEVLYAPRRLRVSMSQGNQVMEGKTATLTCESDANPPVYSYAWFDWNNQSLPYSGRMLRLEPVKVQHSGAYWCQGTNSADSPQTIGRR

On to `C#CCOCCOCCOCc1ccc(CC(=O)NC[C@@H](O)[C@@H](O)[C@@H]2O[C@@](OCc3ccccc3)(C(=O)O)C[C@H](O)[C@H]2NC(=O)CO)cc1` [Compound 9, (2R,4S,5R,6R)-2-(benzyloxy)-6-((1R,2R)-1,2-dihydroxy-3-(2-(4-((2-(2-(prop-2-yn-1-yloxy)ethoxy)ethoxy)methyl)phenyl)acetamido)propyl)-4-hydroxy-5-(2-hydroxyacetamido)tetrahydro-2H-pyran-2-carboxylic acid], for which the Kd in experiment [1], in experiment [2] and in experiment [3] was 1 to 10 µM in each case.

With `C#Cc1ccc(CC(=O)NC[C@@H](O)[C@@H](O)[C@@H]2O[C@@](OCCCCCCOC)(C(=O)O)C[C@H](O)[C@H]2NC(=O)CO)cc1` [Compound 11, (2R,4S,5R,6R)-6-((1R,2R)-3-(2-(4-ethynylphenyl)acetamido)-1,2-dihydroxypropyl)-4-hydroxy-5-(2-hydroxyacetamido)-2-((6-methoxyhexyl)oxy)tetrahydro-2H-pyran-2-carboxylic acid], the Kd in experiment [1] is 1 to 10 µM; in experiment [2] it was below 1 µM; in experiment [3], below 1 µM.

On to `C#Cc1ccc(CC(=O)NC[C@@H](O)[C@@H](O)[C@@H]2O[C@@](SCc3ccccc3)(C(=O)O)C[C@H](O)[C@H]2NC(=O)CO)cc1` [Compound 12, (2S,4S,5R,6R)-2-(benzylthio)-6-((1R,2R)-3-(2-(4-ethynylphenyl)acetamido)-1,2-dihydroxypropyl)-4-hydroxy-5-(2-hydroxyacetamido)tetrahydro-2H-pyran-2-carboxylic acid], for which the Kd in experiment [1], in experiment [2] and in experiment [3] was below 1 µM throughout.

With `C#CCOCCCCCCCc1ccc(CC(=O)NC[C@@H](O)[C@@H](O)[C@@H]2O[C@@](OCc3ccccc3)(C(=O)O)C[C@H](O)[C@H]2NC(=O)CO)cc1` [Compound 13, (2R,4S,5R,6R)-2-(benzyloxy)-6-((1R,2R)-1,2-dihydroxy-3-(2-(4-(7-(prop-2-yn-1-yloxy)heptyl)phenyl)acetamido)propyl)-4-hydroxy-5-(2-hydroxyacetamido)tetrahydro-2H-pyran-2-carboxylic acid], the Kd in experiment [1], in experiment [2] and in experiment [3] was 1 to 10 µM throughout.

Take `O=C(O)CCCCCCCCC#Cc1ccc(CC(=O)NC[C@@H](O)[C@@H](O)[C@@H]2O[C@@](OCc3ccccc3)(C(=O)O)C[C@H](O)[C@H]2NC(=O)CO)cc1` [Compound 14, (2R,4S,5R,6R)-2-(benzyloxy)-6-((1R,2R)-3-(2-(4-(10-carboxydec-1-yn-1-yl)phenyl)acetamido)-1,2-dihydroxypropyl)-4-hydroxy-5-(2-hydroxyacetamido)tetrahydro-2H-pyran-2-carboxylic acid]: the Kd is below 1 µM in experiment [1], 1 to 10 µM in experiment [2] and 1 to 10 µM in experiment [3].

As to `C#CCOCCOCCOc1ccc(CC(=O)NC[C@@H](O)[C@@H](O)[C@@H]2O[C@@](OCc3ccccc3)(C(=O)O)C[C@H](O)[C@H]2NC(=O)CO)cc1` [Compound 15, (2R,4S,5R,6R)-2-(benzyloxy)-6-((1R,2R)-1,2-dihydroxy-3-(2-(4-(2-(2-(prop-2-yn-1-yloxy)ethoxy)ethoxy)phenyl)acetamido)propyl)-4-hydroxy-5-(2-hydroxyacetamido)tetrahydro-2H-pyran-2-carboxylic acid], the Kd in experiment [1], in experiment [2] and in experiment [3] was 1 to 10 µM throughout.

In the case of `CCCCCCO[C@]1(C(=O)O)C[C@H](O)[C@@H](NC(=O)CO)[C@H]([C@H](O)[C@H](O)CNC(=O)Cc2ccc(-c3cn(CCOCCOCCOCCC(=O)NCC)nn3)cc2)O1` [Compound 16, (2R,4S,5R,6R)-6-((1R,2R)-1,2-dihydroxy-3-(2-(4-(1-(12-oxo-3,6,9-trioxa-13-azapentadecyl)-1H-1,2,3-triazol-4-yl)phenyl)acetamido)propyl)-2-(hexyloxy)-4-hydroxy-5-(2-hydroxyacetamido)tetrahydro-2H-pyran-2-carboxylic acid], the Kd in experiment [1], in experiment [2] and in experiment [3] was below 1 µM each time.

As for `C#CCO[C@H]1C[C@](OCc2ccccc2)(C(=O)O)O[C@@H]([C@H](O)[C@H](O)CNC(=O)Cc2ccc(Cl)cc2)[C@@H]1NC(=O)CO` [Compound 18, (2R,4S,5R,6R)-2-(benzyloxy)-6-((1R,2R)-3-(2-(4-chlorophenyl)acetamido)-1,2-dihydroxypropyl)-5-(2-hydroxyacetamido)-4-(prop-2-yn-1-yloxy)tetrahydro-2H-pyran-2-carboxylic acid], the Kd in experiment [1], in experiment [2] and in experiment [3] was 1 to 10 µM in each case.

In the case of `CCCNC(=O)CCOCCOCCOCCn1cc(CO[C@H]2C[C@](OCc3ccccc3)(C(=O)O)O[C@@H]([C@H](O)[C@H](O)CNC(=O)Cc3ccc(Cl)cc3)[C@@H]2NC(=O)CO)nn1` [Compound 19, (2R,4S,5R,6R)-2-(benzyloxy)-6-((1R,2R)-3-(2-(4-chlorophenyl)acetamido)-1,2-dihydroxypropyl)-5-(2-hydroxyacetamido)-4-((1-(12-oxo-3,6,9-trioxa-13-azahexadecyl)-1H-1,2,3-triazol-4-yl)methoxy)tetrahydro-2H-pyran-2-carboxylic acid], the Kd in experiment [1], in experiment [2] and in experiment [3] was 1 to 10 µM throughout.

Regarding `C#CCO[C@H]1C[C@](OCCCCCC(=O)O)(C(=O)O)O[C@@H]([C@H](O)[C@H](O)CNC(=O)Cc2ccc(Cl)cc2)[C@@H]1NC(=O)CO` [Compound 20, (2R,4S,5R,6R)-2-((5-carboxypentyl)oxy)-6-((1R,2R)-3-(2-(4-chlorophenyl)acetamido)-1,2-dihydroxypropyl)-5-(2-hydroxyacetamido)-4-(prop-2-yn-1-yloxy)tetrahydro-2H-pyran-2-carboxylic acid], the Kd in experiment [1], in experiment [2] and in experiment [3] was 1 to 10 µM each time.
